The results in this text go back to ChEMBL document CHEMBL1201862, “PubChem BioAssay data set” (2004).

Values joined by “and” are separate entries in the source; they are usually repeats but may differ in a detail not shown here. Equal values may be shown once.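 Five compound concentrations were applied to cells in 96-well plates for 48 hours; endpoints were derived by simple linear interpolation of the resulting dose-response curve. GI50: concentration for 50% inhibition of growth.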 Active and inactive are the calls of the source. Rule as the data show it: active = GI50 up to about 1.1 µM and inactive = higher.

Some test systems named below: OVCAR-5; SNB-75; A549; SW-620; COLO 205; SK-OV-3; HCT-116; NCI/ADR-RES; OVCAR-3; M14; SNB-19; SK-MEL-28; UACC-62; NCI-H460; LOX IMVI; HCT-15; RXF 393; ACHN; NCI-H522; SF-539.
What all share (assay): growth of human tumour cells (NCI), 48 h

As to `CCOC(=O)CCSS(=O)(=O)C(F)(F)F`, the GI50 in the test with OVCAR-5, in the test on SNB-75, in the test on A549, with SW-620, with COLO 205 and in the test on SK-OV-3 was > 100 µM (inactive) in each case. Further, the GI50 in the test on HCT-116, with NCI/ADR-RES, in the test with OVCAR-3, in the test on M14, in the test on SNB-19 and with SK-MEL-28 was > 100 µM (inactive) each time. Also, the GI50 in the test on UACC-62 is > 100 µM (inactive); with NCI-H460, > 100 µM (inactive); in the test on LOX IMVI it was > 100 µM (inactive); in the test with HCT-15, over 100 µM; with RXF 393, > 100 µM (inactive); in the test with ACHN, > 100 µM (inactive).
Take `O=C(NC(Cc1ccc(I)cc1)C(=O)O)c1ccc(I)cc1` (stereo unspecified): the GI50 in the test on OVCAR-5 was > 100 µM (inactive); in the test with SNB-75, 21.2 µM (inactive); in the test on A549, 98.6 µM (inactive); in the test with COLO 205, > 100 µM (inactive); with SK-OV-3, > 100 µM (inactive); with HCT-116 it was 54.1 µM (inactive). The GI50 with NCI-H522 is 38.8 µM (inactive); with NCI/ADR-RES it was > 100 µM (inactive); in the test on OVCAR-3, 41.5 µM (inactive); in the test on SNB-19, 54.7 µM (inactive); in the test on SF-539 it was > 74 µM (inactive); in the test on SK-MEL-28, 53.3 µM (inactive). The GI50 is 29.6 µM (inactive) with UACC-62; 57.9 µM (inactive) with NCI-H460; > 100 µM (inactive) in the test on LOX IMVI; 99.1 µM in the test with HCT-15; > 100 µM (inactive) in the test with RXF 393.
`Clc1ccc(C(SCc2ccccc2)SCc2ccccc2)cc1`: the GI50 in the test on SNB-75, in the test on A549, in the test with SW-620, in the test with COLO 205, with SK-OV-3 and in the test on HCT-116 was > 10 µM (inactive) throughout. Also, the GI50 in the test with NCI-H522, with NCI/ADR-RES, with OVCAR-3, with M14, in the test on SNB-19 and in the test on SF-539 was > 10 µM (inactive) each time. Also, the GI50 with SK-MEL-28 was > 10 µM (inactive); with UACC-62 it was > 10 µM (inactive); in the test on NCI-H460 it was > 10 µM (inactive); in the test on LOX IMVI it was > 10 µM (inactive); with HCT-15 it was over 10 µM; with RXF 393, > 10 µM (inactive). Moreover, the GI50 in the test on ACHN was > 10 µM (inactive).
Consider `C/C(=N\Nc1nc2ccccc2[nH]1)c1cccc[n+]1[O-]`, for which the GI50 in the test with OVCAR-5 is 8.91 µM (inactive); with A549, > 100 µM (inactive); in the test on SW-620, > 100 µM (inactive); in the test on COLO 205, 65.8 µM (inactive); in the test with SK-OV-3 it was > 100 µM (inactive); in the test on HCT-116 it was 88.3 µM (inactive). Further, the GI50 in the test with NCI-H522 is > 100 µM (inactive); in the test with NCI/ADR-RES, 38.5 µM (inactive); with OVCAR-3 it was 37.6 µM (inactive); with M14, > 100 µM (inactive); in the test with SNB-19, > 100 µM (inactive); in the test with SF-539 it was > 100 µM (inactive). Further, the GI50 with SK-MEL-28 was > 100 µM (inactive); in the test with UACC-62, 87.1 µM (inactive); in the test with NCI-H460, 49.2 µM (inactive); with LOX IMVI, 56.6 µM (inactive); in the test on HCT-15, 51.5 µM; in the test with RXF 393, 45.2 µM (inactive). Also, in the test with ACHN, the GI50 is 71 µM (inactive).
`Cc1cc(NC(=S)SCc2ccc(F)cc2)c([N+](=O)[O-])cc1C`: the GI50 is 21.6 µM (inactive) in the test with OVCAR-5; 46.9 µM (inactive) in the test with SNB-75; 27.7 µM (inactive) with A549; 27.5 µM (inactive) with SW-620; 19.3 µM (inactive) in the test with COLO 205; 32.3 µM (inactive) in the test on SK-OV-3. The GI50 in the test with HCT-116 was 26.2 µM (inactive); with NCI/ADR-RES it was 25.8 µM (inactive); with OVCAR-3, 22.6 µM (inactive); with M14 it was 35.5 µM (inactive); in the test on SNB-19, 23.2 µM (inactive); in the test with SF-539, 23.8 µM (inactive). In addition, the GI50 in the test with SK-MEL-28 is 39.1 µM (inactive); in the test on UACC-62, 15 µM (inactive); with NCI-H460 it was 36.7 µM (inactive); with HCT-15 it was 18.3 µM; with RXF 393, 22.9 µM (inactive); in the test on ACHN, 32.4 µM (inactive).
For the compound `COc1cc(NC(C)CCCN)c2ncccc2c1` (stereo unspecified) [PRIMAQUINE PHOSPHATE], the GI50 is > 91 µM (inactive) and > 83.4 µM (inactive) in the test with OVCAR-5; 47.2 µM (inactive) and 24.1 µM (inactive) with SNB-75; > 100 µM (inactive) in the test with A549; 52.2 µM (inactive) and 73.8 µM (inactive) in the test with SW-620; 17.8 µM (inactive) and 32.5 µM (inactive) with COLO 205; 90.6 µM (inactive) and 52.1 µM (inactive) with NCI-H522. Further, the GI50 in the test with NCI/ADR-RES was > 100 µM (inactive); in the test with OVCAR-3, 22.6 µM (inactive) and 43.7 µM (inactive); with SF-539, > 100 µM (inactive); with LOX IMVI it was 43.9 µM (inactive) and 51.4 µM (inactive); in the test on ACHN it was 51.6 µM (inactive) and 82 µM (inactive).
Consider `CC1(O)OC(=O)C2=C1CCC1C2CCC2(C)C(O)CCC12` (stereo unspecified), for which the GI50 in the test with OVCAR-5, in the test on A549, in the test with SW-620, with HCT-116, in the test on NCI-H522 and in the test on NCI/ADR-RES was > 100 µM (inactive) each time. Also, the GI50 was > 100 µM (inactive) in the test on OVCAR-3; > 100 µM (inactive) in the test on M14; > 100 µM (inactive) with SNB-19; > 100 µM (inactive) with SF-539; > 100 µM (inactive) in the test on SK-MEL-28; 46.3 µM (inactive) in the test with UACC-62. In addition, the GI50 with NCI-H460 was > 100 µM (inactive); in the test on LOX IMVI it was 25.6 µM (inactive); with HCT-15, over 100 µM; in the test on ACHN it was > 100 µM (inactive).
With `C=C(C)C(=O)[C@@]12C(=O)[C@@H](C)CC[C@H]1[C@H](C)C[C@@H]2C=C(C)C`, the GI50 is 28.4 µM (inactive) in the test on OVCAR-5; 34.8 µM (inactive) in the test with SNB-75; 32.7 µM (inactive) in the test on A549; 20.2 µM (inactive) in the test with SW-620; 18.8 µM (inactive) with COLO 205; 37 µM (inactive) in the test on SK-OV-3. Moreover, the GI50 in the test with HCT-116 was 14.9 µM (inactive); with NCI-H522, 14.6 µM (inactive); with NCI/ADR-RES it was 27.8 µM (inactive); with OVCAR-3, 19.5 µM (inactive); in the test on M14, 55.6 µM (inactive); in the test with SNB-19, 12.6 µM (inactive). Besides, the GI50 was 19.9 µM (inactive) in the test on SF-539; 34 µM (inactive) in the test on SK-MEL-28; 22.9 µM (inactive) with UACC-62; 18.7 µM (inactive) in the test on LOX IMVI; 19.9 µM with HCT-15; 12.9 µM (inactive) in the test with ACHN.
With `O=[N+]([O-])c1ccc(-c2nc3cc([N+](=O)[O-])ccc3[nH]2)cc1`, the GI50 is 39.4 µM (inactive) in the test on SNB-75; 15.1 µM (inactive) in the test with A549; 41.3 µM (inactive) in the test on SW-620; 14.3 µM (inactive) in the test on COLO 205; 34.1 µM (inactive) in the test with SK-OV-3; 19 µM (inactive) in the test with HCT-116. Also, the GI50 in the test with NCI-H522 was 11.4 µM (inactive); in the test with NCI/ADR-RES, 17.6 µM (inactive); in the test on OVCAR-3 it was 42.1 µM (inactive); in the test with M14 it was 21.9 µM (inactive); with SNB-19 it was 43.1 µM (inactive); in the test with SF-539, 23.5 µM (inactive). The GI50 with SK-MEL-28 is 40.6 µM (inactive); in the test on UACC-62 it was 37 µM (inactive); in the test on NCI-H460, 22 µM (inactive); with LOX IMVI, 26.5 µM (inactive); with HCT-15, 34.9 µM; in the test on RXF 393, 63.7 µM (inactive). Besides, in the test on ACHN, the GI50 is 31 µM (inactive).
`COc1ccc(/C=C2\CCNC2=O)cc1`: the GI50 with OVCAR-5 was > 100 µM (inactive); with SNB-75, > 47.1 µM (inactive); in the test with A549, > 100 µM (inactive); in the test with SW-620, > 100 µM (inactive); in the test on COLO 205 it was > 100 µM (inactive); with SK-OV-3, > 100 µM (inactive). In addition, the GI50 in the test with HCT-116 was > 100 µM (inactive); in the test with NCI-H522, > 100 µM (inactive); in the test on NCI/ADR-RES, > 100 µM (inactive); in the test on OVCAR-3 it was > 100 µM (inactive); with SNB-19 it was > 100 µM (inactive); with SF-539, > 76.6 µM (inactive). Besides, the GI50 with SK-MEL-28 was > 100 µM (inactive); in the test with UACC-62, > 100 µM (inactive); in the test on NCI-H460, > 100 µM (inactive); in the test with LOX IMVI, > 100 µM (inactive); with HCT-15, over 100 µM.
On to `N#C/C(N)=C(C#N)/N=C/NCc1ccccc1`, for which the GI50 with OVCAR-5, in the test with SNB-75, in the test on A549, with SW-620, with COLO 205 and in the test on SK-OV-3 was > 100 µM (inactive) each time. Besides, the GI50 with HCT-116 is > 100 µM (inactive); with NCI-H522 it was > 100 µM (inactive); in the test with NCI/ADR-RES it was 50.1 µM (inactive); with OVCAR-3 it was > 100 µM (inactive); in the test with M14 it was > 100 µM (inactive); with SNB-19 it was > 100 µM (inactive). Besides, the GI50 in the test on SF-539 is > 100 µM (inactive); in the test with SK-MEL-28, > 100 µM (inactive); with UACC-62, 95.5 µM (inactive); in the test with NCI-H460, > 100 µM (inactive); in the test with LOX IMVI, > 100 µM (inactive); in the test with HCT-15, over 100 µM. Besides, the GI50 with ACHN was > 100 µM (inactive).
